{"source": "patent US8846107B2", "about": "“In situ generation of peroxycarboxylic acids at alkaline pH, and methods of use thereof” (priority 2010, dated 2014)", "key": {"[1]": {"assay": "Coupling of precipitated POOA solution by surfactants and hydrotropes", "type": "physicochemical", "settings": "1000 ppm POOA in DI Water", "protocol": "A variety of surfactants were analyzed for coupling and/or dispersion stabilizing of a peroxycarboxylic acid composition generated according to the methods of the invention. In particular, a peroxyoctanoic acid (POOA) composition in deionized water produced according to the invention was analyzed for coupling and/or dispersion stabilization using the dispersing agents set forth in Table 14A.\nGiven the very limited water solubility of POOA in its protonated form, acidification of the alkaline perhydrolysis solutions of the same causes immediate precipitation and rapid phase separation. In this example various surfactants and hydrotropes were evaluated for their ability to couple the POOA. In Table 14A it can be seen that the most efficient agents for coupling an already precipitated solution of POOA were samples I and II."}, "[2]": {"assay": "Dispersion stability of acidified POOA solutions with dispersing agents", "type": "physicochemical", "protocol": "The SLS, LAS and SOA dispersing agents were then further examined for efficacy in stabilizing and/or dispersing in 1% or lower sulfuric acid solutions. Solutions were made according to the following order (3, 6, 9, 12, 1, 4, 7, 10, 2, 5, 8, 11, 13, 14). Solution 13 was made as 1 through 12 with the addition of 50 mL of 5 grain hard water to the aliquot of alkaline reaction solution followed by swirling with the surface aliquot and then additional 50 mL of 5 grain hard water, followed within about 5 seconds by 50 mL of 5 grain 2% sulfuric acid and swirled. Solution 14 was made by direct addition of 1% sulfuric acid (5 grain) without pre-dilution, but after moments of swirling with SLS aliquot. All concentrations are shown in ppm.\nFor the POOA solutions the targeted peracid concentration was based upon initial average of about 5.40 wt-% of ongoing cold alkaline peracid hydrolysis according to the invention (**), wherein the aliquot was constant while POOA was increasing.\nThe appearance of an oil sheen was regarded as a pass or fail."}, "[3]": {"system": "Escherichia coli ATCC 11229", "assay": "Sanitizing efficacy of in situ generated peroxycarboxylic acids", "type": "cell-based", "settings": "25° C.", "protocol": "A study was run to evaluate the sanitizing efficacy of mixtures of peroxycarboxylic acids generated in situ from esters under alkaline conditions. For this study the following ester based peroxycarboxylic acid forming compositions were used.\nThe above Peroxycarboxylic acid premixes were then tested alone at various concentrations, and mixed at various concentrations against Staphylococcus aureus ATCC 6538, and Escherichia coli ATCC 11229.\nThe test substances were tested against Staphylococcus aureus ATCC 6538, and Escherichia coli ATCC 11229 at 25° C.±1° C. for 30 seconds. A neutralizer screen was performed as part of the testing to verify that the neutralizer adequately neutralized the product and was not detrimental to the tested organisms."}, "[4]": {"settings": "13 ppm POOA, pH 4.98, 30 seconds"}, "[5]": {"settings": "15 ppm POOA, pH 5.01, 30 seconds"}, "[6]": {"settings": "20 ppm POOA, pH 4.98, 30 seconds"}, "[7]": {"settings": "35 ppm POAA, pH 5.00, 30 seconds"}, "[8]": {"settings": "61 ppm POAA, pH 5.00, 30 seconds"}}}
{"molecule": "CCCCCCCCCCCCOS(=O)(=O)[O-].[Na+]", "note": "[I, Sodium Lauryl Sulfate]", "values": [{"measurement": "Amount of (B) Required for Coupling (g/200 g aq POOA)", "setting": "[1]", "value": 0.64, "unit": "g/200 g aq POOA"}, {"measurement": "dispersant performance for acidified POOA", "setting": "[2]; acidic, aqueous dispersions of POOA", "value": "exceptional dispersant"}]}
{"molecule": "Sodium Lauryl Ether Sulfate [III]", "values": [{"measurement": "Amount of (B) Required for Coupling (g/200 g aq POOA)", "setting": "[1]", "value": ">0.94", "unit": "g/200 g aq POOA"}]}
{"molecule": "Alkyl Polyglycosides [VI]", "values": [{"measurement": "Amount of (B) Required for Coupling (g/200 g aq POOA)", "setting": "[1]", "value": 2.46, "unit": "g/200 g aq POOA"}]}
{"molecule": "CCCCC(CC)COC(=O)CC(C(=O)OCC(CC)CCCC)S(=O)(=O)[O-].[Na+]", "note": "(centres unmarked) [X, Sodium dioctyl Sulfosuccinates]", "values": [{"measurement": "Amount of (B) Required for Coupling (g/200 g aq POOA)", "setting": "[1]", "value": ">2.0", "unit": "g/200 g aq POOA"}]}
{"molecule": "CCCCCCCCS(=O)(=O)[O-].[Na+]", "note": "[VII, Sodium octanesulfonate]", "values": [{"measurement": "Amount of (B) Required for Coupling (g/200 g aq POOA)", "setting": "[1]", "value": 6.60, "unit": "g/200 g aq POOA"}]}
{"molecule": "Linear Aryl Sulfonate [II]", "values": [{"measurement": "Amount of (B) Required for Coupling (g/200 g aq POOA)", "setting": "[1]", "value": 0.65, "unit": "g/200 g aq POOA"}, {"measurement": "Amount of (B) Required for Coupling (g/200 g aq POOA)", "setting": "[1]; listed as LAS", "value": 0.64, "unit": "g/200 g aq POOA"}, {"measurement": "oil sheen at 23 h", "setting": "[2]; acidified POOA in 10,000 ppm H2SO4, oil sheen regarded as fail", "value": "minimal surface oil"}]}
{"molecule": "CCCCCCCC(=O)OO", "note": "[POOA, peroxyoctanoic acid]", "values": [{"measurement": "Average Log10 Survivors", "setting": "[3]; [4]", "value": 7.59, "unit": "Log10"}, {"measurement": "Log Reduction", "setting": "[3]; [4]", "value": 0.46, "unit": "Log"}, {"measurement": "Survivors (CFU/mL)", "setting": "[3]; [4]", "value": "4.22 × 10^7 CFU/mL"}, {"measurement": "Average Log10 Survivors", "setting": "[3]; [5]", "value": 7.15, "unit": "Log10"}, {"measurement": "Log Reduction", "setting": "[3]; [5]", "value": 0.90, "unit": "Log"}, {"measurement": "Survivors (CFU/mL)", "setting": "[3]; [5]", "value": "1.06 × 10^7 CFU/mL"}, {"measurement": "Average Log10 Survivors", "setting": "[3]; [6]", "value": 5.85, "unit": "Log10"}, {"measurement": "Log Reduction", "setting": "[3]; [6]", "value": 2.20, "unit": "Log"}]}
{"molecule": "CC(=O)OO", "note": "[POAA, peroxyacetic acid]", "values": [{"measurement": "Average Log10 Survivors", "setting": "[3]; [7]", "value": 7.27, "unit": "Log10"}, {"measurement": "Log Reduction", "setting": "[3]; [7]", "value": 0.78, "unit": "Log"}, {"measurement": "Survivors (CFU/mL)", "setting": "[3]; [7]", "value": "1.85 × 10^7 CFU/mL"}, {"measurement": "Average Log10 Survivors", "setting": "[3]; [8]", "value": 3.93, "unit": "Log10"}, {"measurement": "Log Reduction", "setting": "[3]; [8]", "value": 4.12, "unit": "Log"}, {"measurement": "Survivors (CFU/mL)", "setting": "[3]; [8]", "value": "3.0 × 10^3 CFU/mL"}]}
